Legend:
[1] = test system: LNCaP prostate cancer cells; design: method as in PMID 21796654; conditions: cited from earlier work
[2] = test system: C4-2 prostate cancer cells; design: method as in PMID 21796654; conditions: cited from earlier work
[3] = test system: HeLa; assay: Acridine orange/ethidium bromide double staining, quantification of viable, apoptotic and necrotic cells; assay type: cell-based, human
Procedure: HeLa, 9 μM] at various time points. Each experiment included a set of untreated control cells (Media with DMSO alone). Double staining with acridine orange and ethidium bromide and consequently fluorescent microscopic analysis is an established method by which to distinguish between viable, necrotic and apoptotic cells. […] Following treatment, the cells were pelleted, washed twice in 1× PBS and resuspended in 50 μL 1× PBS. 1 μL of dye mixture (1 part 100 μg/mL acridine orange in PBS and 1 part 100 μg/mL ethidium bromide in PBS) was added to 10 μL of cell suspension and the entire volume was placed on a clean microscope slide. Cells were examined by fluorescence microscopy using the fluorescein filter (BX41, Olympus, Melville, NY, USA) and were distinguished via the morphological aspect of chromatin condensation in stained nuclei as previously established. A minimum of 200 cells were counted per sample and the percentage of cells from each population (viable, live apoptotic, dead apoptotic, necrotic) was calculated.

[4] = test system: CaSki; assay: MTT anti-proliferative (time-dependent) assay, 24, 48 and 72 h; assay type: cell-based, human; conditions: for cell viability: 3.1–100 μM
Procedure: (§1) HeLa, CaSki and MRC9 cells were plated in triplicate wells in 96-well flat-bottomed tissue culture plates (Nunc, Roskilde, Denmark) with 10^5 cells per mL in 100 μL culture media with working concentrations of diarylpentanoid treatment ranging from 1.6 to 100 μM. Control-treated wells contained cells incubated in media with equal volumes of DMSO (0.2%). Cells were treated for 72 h for dose-dependent cytotoxicity assays and at 24, 48 and 72 h for anti-proliferative (time-dependent) assays. In order to assess cell viability and anti-proliferative activity after diarylpentanoid treatment, the colorimetric 3-(4,5-dimethylthiazol-2-yl)-2,5-diphenyltetrazolium bromide (MTT) assay was performed as previously described with modifications. The media was aspirated and cells were incubated in 100 µL complete medium with 0.5 mg/mL MTT solution for 4 h in the dark to allow metabolism of MTT by cellular mitochondrial dehydrogenases. The excess MTT was aspirated and the formazan crystals formed were dissolved by the addition of 100 µL of DMSO. The absorbance of dark blue formazan was read at 570/650 nm wavelengths using a microplate reader (Bio-Rad Benchmark Plus Microplate Spectrophotometer, Hercules, CA, USA). Triplicate absorbance values were averaged and the effect of the compounds on growth inhibition was assessed as percentage cell viability as follows: (1) Percentage cell viability =Absorbance of Test − Absorbance of Blank (media only)/Absorbance of Control − Absorbance of Blank (media only) × 100 where, absorbance = optical density of sample, O.D.; control = untreated sample; test = treated sample.
(§2) An independent set of vehicle-treated (DMSO only) controls were included in the anti-proliferative assays to assess the proliferation of untreated cancer cells over 24, 48 and 72 h. As such, the cell viability at 24 h was used as a baseline to measure proliferation rate at 48 and 72 h. (2) Percentage cell viability = […]/Absorbance of Control (24 h) × Absorbance of Blank (media only) × 100

[5] = test system: HeLa; assay: as above; assay type: cell-based, human
Procedure: as §1, §2

[6] = test system: HeLa; assay: DNA fragmentation, Cell Death Detection ELISA (cytoplasmic nucleosomal enrichment); assay type: cell-based, human
Procedure: Each experiment included a set of untreated control cells (Media with DMSO alone). The enrichment of the cytoplasm of treated cells by mono- and oligonucleosomes are used to study whether enhanced DNA fragmentation is induced by diarylpentanoid treatment. This determination was made following the manufacturer’s instructions of the Cell Death Detection ELISA^PLUS kit (Roche Diagnostics, Mannheim, Germany). […] Following treatment, the cells were incubated in lysis buffer and centrifuged, after which the supernatant was transferred to streptavidin coated plates and shaken with the provided immunoreagent (mixture of anti-DNA-POD and anti-histone biotin) for 2 h. […] Enrichment factor, defined as the release of mono- and oligonucleosomes into the cytoplasm, was calculated using the formula below: (4) Enrichment factor =Absorbance of Test − Absorbance of Blank (substrate only)/Absorbance of Control − Absorbance of Blank (substrate only)

[7] = test system: caspase-3 activity in CaSki cells; assay: Caspase-3 colorimetric assay (relative caspase-3 activity); assay type: cell-based, human
Procedure: (§3) HeLa, 9 μM] at various time points. Each experiment included a set of untreated control cells (Media with DMSO alone). Caspase-3 activity was assessed using the Caspase-3 Colorimetric Assay Kit (Sigma Aldrich), following the manufacturer’s instructions. […] Following treatment, the cells were washed in PBS and suspended in a lysis buffer (50 mM HEPES pH 7.4, 5 mM CHAPS, 5 mM DTT) for 25 min at a concentration of 10^7 cells per 100 μL of buffer. Lysed cells were centrifuged at 16,000× g, 4 °C for 30 min. Lysate protein concentration was determined using the Cayman Chemical Protein Determination (Cayman Chemical Company, Ann Arbor, MI, USA) kit which is a colorimetric method for total protein quantification based on the Bradford method. In short, 100 μL of protein samples was diluted in 96-well plates and 100 μL of the assay reagent was added to the samples, incubated for 5 min and the absorbance measured at 595 nm. Protein concentrations were calculated from a regression line fit to a series of standard protein dilutions assays on the same plate as the unknown samples. […] The effect of Ac-DEVD-CHO, a caspase-3 inhibitor, on caspase-3 activity was studied simultaneously. As per the manufacturer’s instructions, 10 μL of the inhibitor Ac-DEVD-CHO (200 μM) was added to a well containing the assay buffer, followed immediately by the cell lysate and 10 μL of the substrate Ac-DEVD-pNA (2 mM). Caspase-3 activity was assessed by measuring the absorbance released by the pNA molecule at 405 nm using a Bio-Rad Benchmark Plus Microplate Spectrophotometer. Caspase-3 activity was expressed by measuring the ratio of the mean caspase-3 activity of treated cells relative to untreated cells.

[8] = test system: caspase-3 activity in HeLa cells; assay: as above; assay type: cell-based, human; conditions: all time points and doses (3, 6, 9 μM)
Procedure: as §3

Compound: O=C(C=Cc1ccccc1O)C=Cc1ccccc1O [MS17, 1,5-bis(2-hydroxyphenyl)-1,4-pentadiene-3-one]
- concentration causing significant cell death [1]: > 10 µM
- concentration causing significant cell death [2]: more than 2.5 μM
- early apoptotic cells ([3]; 3 µM, 24 h): 40%
- early apoptotic cells ([3]; 3 µM, 48 h): 50%
- necrotic cells ([3]; 3 µM, throughout the treatment period (24 and 48 h)): approximately 10%
- early apoptotic cells ([3]; 6 µM, 24 h): 60%
- early apoptotic cells ([3]; 6 µM, 48 h): 30%
- necrotic cells ([3]; 6 µM, throughout the treatment period (24 and 48 h)): approximately 25%
- early apoptotic cells ([3]; 9 µM, 24 h): 50%
- necrotic cells ([3]; 9 µM, 24 h): 40%
- early apoptotic cells ([3]; 9 µM, 48 h): 10%
- necrotic cells ([3]; 9 µM, 48 h): 50%
- viable cells ([3]; 24 h, end of dose-dependent decrease (3–9 µM)): less than 10%
- viable cells ([3]; 48 h, with increasing treatment dose (3–9 µM)): less than 5%
- late apoptotic cells ([3]; all treatment doses, 24 h): ≤ 10%
- dosage from which reduction in cell viability was significantly higher at 48 and 72 h than at 24 h [4]: 3.1 µM
- cell growth ([4]; 12.5 μM onwards, 24 h): 43%
- cell viability ([4]; 48 h): 22%
- cell viability ([4]; 72 h): 9%
- dosage from which reduction in cell viability was significantly higher at 48 and 72 h than at 24 h [5]: 6.3 µM
- cell viability ([5]; 6.3 μM onwards, 24 h): 34%
- cell growth ([5]; 6.3 μM onwards, 48 h): 12%
- cell growth ([5]; 6.3 μM onwards, 72 h): 5%
- increase in nucleosome enrichment ([6]; 6 μM, 24 h, vs untreated): 2.2 fold
- increase in enrichment factor ([6]; 6 μM, 48 h, vs untreated): approximately two-fold
- enrichment factor ([6]; 6 and 9 μM, 72 h): significant reduction of enrichment factor
- relative caspase-3 activity ([7]; 2 μM): low caspase-3 activity
- relative caspase-3 activity ([7]; 4 μM, 48 h): increased activity
- relative caspase-3 activity ([7]; 6 μM, 24 h, treated over untreated): threefold increase
- relative caspase-3 activity [8]: no significant differences
